Earlier results in US4672107A, “Cell growth inhibitor and method” (Inbex, Inc., priority 1985, dated 1987).

Tested on: human embryonic palatal mesenchymal cells
Conditions: Yoneda and Pratt, Science 1981

## Epidermal Growth Factor (NSDSECPLSHDGYCLHDGVCMYIEALDKYACNCVVGYIGERCQYRDLKWWELR; Epidermal growth factor; UniProt P01133 971-1023, looked up) [Epidermal Growth Factor (EGF)]
  stimulation of incorporation of 3[H]-thymidine into newly synthesized DNA: a little more than twofold
